From patent publication US6608086B2, “Dihydropyridines and new uses thereof” (Synaptic Pharmaceutical Corporation, priority 1993, dated 2003) come the findings set out here.

pKi: −log10 of the molar value. Where two headings read alike, the source gives them in different places.

For test [1], the target named is T1, α1B Human Adrenergic Receptor (Homo sapiens, UniProt P35368).
T1 construct: The entire coding region of α1B (1563 bp); expressed in transfected cells
T1 sequence (P35368 1-520): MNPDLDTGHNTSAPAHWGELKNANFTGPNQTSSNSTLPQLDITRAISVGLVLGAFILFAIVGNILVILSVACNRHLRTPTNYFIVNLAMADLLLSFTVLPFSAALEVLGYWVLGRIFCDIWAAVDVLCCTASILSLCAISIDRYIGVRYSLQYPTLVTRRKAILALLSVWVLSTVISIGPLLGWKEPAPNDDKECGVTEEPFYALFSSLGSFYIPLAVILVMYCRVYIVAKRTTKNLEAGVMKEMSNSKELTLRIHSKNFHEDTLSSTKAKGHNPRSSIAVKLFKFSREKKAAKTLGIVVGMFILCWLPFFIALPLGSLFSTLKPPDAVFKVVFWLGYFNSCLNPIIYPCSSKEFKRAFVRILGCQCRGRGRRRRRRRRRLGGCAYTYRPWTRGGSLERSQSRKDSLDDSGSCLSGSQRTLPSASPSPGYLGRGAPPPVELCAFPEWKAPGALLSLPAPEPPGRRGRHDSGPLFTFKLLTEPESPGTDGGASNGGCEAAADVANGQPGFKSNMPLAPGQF
In words: Radioligand binding, [3H]prazosin, cloned human α1B adrenergic receptor. The conditions noted are these: cloned human receptor in LM(tk-) cell membranes, SEM and n in lines below; for Ki: read-out: pKi alpha-1 1b (converted); for pKi: pKi alpha-1 1b. In short, it runs like this:
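[3H]prazosin (0.5 nM) binding was run for 20 min at 37° C in pH 7.5 Tris/MgCl2/ascorbate buffer on membranes of LM(tk−) cells stably expressing the cloned receptor. Filtration through GF/B ended the reaction; 10 μM phentolamine gave nonspecific binding.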

The target of test [2] is T2, α1C Human Adrenergic Receptor (Homo sapiens, UniProt P35348).
T2 construct: The entire coding region of α1C (1401 bp); expressed in transfected cells
T2 sequence (P35348 1-466): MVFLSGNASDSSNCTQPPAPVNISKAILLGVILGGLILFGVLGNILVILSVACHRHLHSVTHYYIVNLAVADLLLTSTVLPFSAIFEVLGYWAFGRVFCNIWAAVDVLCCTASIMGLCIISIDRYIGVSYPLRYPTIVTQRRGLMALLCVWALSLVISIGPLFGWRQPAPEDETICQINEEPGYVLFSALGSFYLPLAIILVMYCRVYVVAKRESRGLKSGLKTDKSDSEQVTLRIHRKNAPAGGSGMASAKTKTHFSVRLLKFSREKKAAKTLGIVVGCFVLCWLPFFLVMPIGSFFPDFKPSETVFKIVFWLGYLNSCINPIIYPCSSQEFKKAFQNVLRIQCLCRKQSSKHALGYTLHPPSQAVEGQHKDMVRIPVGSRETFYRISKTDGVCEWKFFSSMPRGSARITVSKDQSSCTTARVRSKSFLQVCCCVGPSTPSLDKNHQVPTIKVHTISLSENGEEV
In words: Radioligand binding, [3H]prazosin, cloned human α1C adrenergic receptor. To be noted: cloned human receptor in LM(tk-) cell membranes, SEM and n in lines below; for Ki: read-out: pKi alpha-1 1c (converted); for pKi: pKi alpha-1 1c. In short, it runs like this:
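Antagonist radioligand [3H]prazosin at 0.5 nM labels human α1C receptors in stably transfected LM(tk−) cell membranes over 20 min at 37° C. Phentolamine (10 μM) gives nonspecific binding.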

The target in the next test is T3, α2B receptor (Homo sapiens, UniProt P18089).
T3 construct: host or cells: LM(tk-) cells, line L-NGC-α2B
T3 sequence (P18089 1-450): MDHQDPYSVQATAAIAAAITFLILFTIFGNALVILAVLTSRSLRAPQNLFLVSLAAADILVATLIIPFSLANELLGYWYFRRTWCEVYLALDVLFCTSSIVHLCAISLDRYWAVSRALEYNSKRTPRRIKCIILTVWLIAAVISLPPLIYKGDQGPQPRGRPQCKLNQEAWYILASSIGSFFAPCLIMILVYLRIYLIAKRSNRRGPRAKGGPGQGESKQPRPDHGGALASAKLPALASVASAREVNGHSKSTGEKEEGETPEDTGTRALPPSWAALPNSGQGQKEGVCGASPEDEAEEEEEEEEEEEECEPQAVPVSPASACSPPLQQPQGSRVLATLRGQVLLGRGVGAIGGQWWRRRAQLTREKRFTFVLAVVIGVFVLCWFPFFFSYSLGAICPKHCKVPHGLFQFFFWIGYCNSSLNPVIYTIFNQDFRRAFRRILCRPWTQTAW
In words: Competition binding, [3H]rauwolscine, human α2B receptor. To be noted: for pKi: pKi alpha-2 2b; for Ki: read-out: pKi alpha-2 2b (converted). The method, boiled down: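 Lysates of LM(tk−) cells stably expressing human α2A, α2B or α2C receptors in 25 mM glycylglycine pH 7.6. Equilibrium competition against 0.5 nM [3H]rauwolscine, with 10 μM phentolamine defining nonspecific binding. Bound ligand separated by GF/B filtration.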

Setting [3] is: [3H]rauwolscine, LM(tk-) cell line L-NGC-α2B, SEM and n in lines below.

With `COC(=O)C1=C(C)NC(C)=C(C(=O)NCCCN2CCC(c3ccccc3)(c3ccccc3)CC2)C1c1ccc(Cl)c([N+](=O)[O-])c1` (stereo not drawn) [Example 16, 4-(4-Chloro-3-nitrophenyl)-1,4-dihydro-3-methoxycarbonyl-2,6-dimethyl-5-(N-(3-(4,4-diphenylpiperidin-1-yl)propyl)carboxamido)pyridine], the Ki was 174 nM in test [1] and 5.89 nM in test [2]. In addition, the pKi (as a rule, −log10 of the Ki, conventionally taken in molar units) on α2B receptor was 5.74.
In the same order, the values of `COC(=O)C1=C(C)NC(C)=C(C(=O)NCCCN2CCC(c3ccccc3)(c3ccccc3)CC2)C1c1ccc(C(C)C)cc1` (stereo not drawn) [Example 18, 1,4-Dihydro-4-(4-isopropylphenyl)-3-methoxycarbonyl-2,6-dimethyl-5-(N-(3-(4,4-diphenylpiperidin-1-yl)propyl)carboxamido)pyridine] are 174 nM, 69.2 nM and 5.79.
In the same order, the values of `COC(=O)C1=C(C)NC(C)=C(C(=O)NCCCN2CCC(c3ccccc3)(c3ccccc3)CC2)C1c1ccc(C)cc1` (stereo not drawn) [Example 19, 1,4-Dihydro-3-methoxycarbonyl-1,6-dimethyl-4-(4-methylphenyl)-5-(N-(3-(4,4-diphenylpiperidin-1-yl)propyl)carboxamido)pyridine] are 269 nM, 1.35 nM and 6.04.
Regarding `COC(=O)C1=C(C)NC(C)=C(C(=O)NCCCN2CCC(c3ccccc3)(c3ccccc3)CC2)C1c1ccc(F)cc1` (stereo not drawn) [Example 20, 4-(4-Fluorophenyl)-1,4-dihydro-3-methoxycarbonyl-2,6-dimethyl-5-(N-(3-(4,4-diphenylpiperidin-1-yl)propyl)carboxamido)pyridine], the Ki in test [1] was 120 nM; in test [2], 3.8 nM. For the same compound, at α2B receptor, the pKi was 5.88.
Consider `COC(=O)C1=C(C)NC(C)=C(C(=O)NCCCN2CCC(c3ccccc3)(c3ccccc3)CC2)C1c1ccc(OC)cc1` (stereo not drawn) [Example 21, 1,4-Dihydro-3-methoxycarbonyl-4-(4-Methoxyphenyl)-2,6-dimethyl-5-(N-(3-(4,4-diphenylpiperidin-1-yl)propyl)carboxamido)pyridine], for which the values for the Ki in test [1] and in test [2] were 204 nM and 7.08 nM, respectively. The pKi at α2B receptor is 5.97.
In the same order, the values of `COC(=O)C1=C(C)NC(C)=C(C(=O)NCCCN2CCC(c3ccccc3)(c3ccccc3)CC2)C1c1ccc2ccccc2c1` (stereo not drawn) [Example 22] are 138 nM, 36.3 nM and 6.04.
On to `COC(=O)C1=C(C)NC(C)=C(C(=O)NCCCN2CCC(c3ccccc3)(c3ccccc3)CC2)C1c1ccoc1` (stereo not drawn) [Example 23, 4-(3-Furyl)-1,4-dihydro-3-methoxycarbonyl-2,6-dimethyl-5-(N-(3-(4,4-diphenylpiperidin-1-yl)propyl)carboxamide)pyridine], for which the pKi in test [1] was 6.67; in test [2], 7.84; on α2B receptor (setting [3]) it was 6.25.
Regarding `COC(=O)C1=C(C)NC(C)=C(C(=O)NCCCN2CCC(c3ccccc3)(c3ccccc3)CC2)C1c1ccc(Cl)c(Cl)c1` (stereo not drawn) [Example 24, 4-(3,4-Dichlorophenyl)-1,4-dihydro-3-methoxycarbonyl-2,6-dimethyl-5-(3-(D 44-diphenylpiperidin-1-yl)propylcarboxamido)pyridine], the Ki in test [1] is 115 nM; in test [2], 1.86 nM. On α2B receptor, this compound showed a pKi of 5.90.
In the same order, the values of `COC(=O)C1=C(C)NC(C)=C(C(=O)NCCCN2CCC(c3ccccc3)(c3ccccc3)CC2)C1c1ccc(C(=O)OC)cc1` (stereo not drawn) [Example 25, 1,4-Dihydro-3-methoxycarbonyl-4-(4-methoxycarbonylphenyl)-2,6-dimethyl-5-(N-(3-(4,4-diphenylpiperidin-1-yl)propyl)carboxamide)pyridine] are 331 nM, 33.9 nM and 6.30.
The matching figures for `COC(=O)C1=C(C)NC(C)=C(C(=O)NCCCN2CCC(c3ccccc3)(c3ccccc3)CC2)C1c1ccc(OC)c(OC)c1` (stereo not drawn) [Example 26]: 437 nM, 7.08 nM and 6.01.
With `COC(=O)C1=C(C)NC(C)=C(C(=O)NCCCN2CCC(c3ccccc3)(c3ccccc3)CC2)C1c1cc(OC)c(OC)c(OC)c1` (stereo not drawn) [Example 27], the Ki is 324 nM in test [1] and 3.63 nM in test [2]. On α2B receptor, this compound had a pKi of 5.98.
In test [1], `COC(=O)C1=C(C)NC(C)=C(C(=O)NCCCN2CCC(c3ccccc3)(c3ccccc3)CC2)C1c1ccc([N+](=O)[O-])c(C)c1` (stereo not drawn) [Example 28] had a negative-log Ki (pKi) of 6.62. The results for the Ki (in test [2]; at α2B receptor (setting [3])) were 9.55 nM and 1660 nM, respectively.
The matching figures for `COC(=O)C1=C(C)NC(C)=C(C(=O)NCCCN2CCC(c3ccccc3)(c3ccccc3)CC2)C1c1ccc([N+](=O)[O-])c(OC)c1` (stereo not drawn) [Example 29, 1,4-Dihydro-3-methoxycarbonyl-4-(3-methoxy-4-nitrophenyl)-2,6-dimethyl-5-(N-(3-(4,4-diphenylpiperidin-1-yl)propyl)carboxamido)pyridine]: 6.85, 1.48 nM and 631 nM.
`CC1=C(C#N)C(c2ccc([N+](=O)[O-])cc2)C(C(=O)NCCCN2CCC(c3ccccc3)(c3ccccc3)CC2)=C(C)N1` (stereo not drawn) [Example 37]: the Ki in test [1] was 200 nM; in test [2], 22.9 nM. In addition, the pKi at α2B receptor was 5.97.
As for `CC1=C(C(=O)NCCCN2CCC(c3ccccc3)(c3ccccc3)CC2)C(c2ccc([N+](=O)[O-])cc2)C2=C(CCCC2=O)N1` (stereo not drawn) [Example 40, 1,4,5,6,7,8-Hexahydro-2-methyl-4-(4-nitrophenyl)-5-oxo-3-{N-[3-(4,4-diphenylpiperidin-1-yl)propyl]}carboxamidoquinoline], the figures for the pKi (in test [1]; in test [2]; on α2B receptor (setting [3])) were 6.56, 7.86 and 5.75, respectively.
As for `CCC1=C(C(N)=O)C(c2ccc([N+](=O)[O-])cc2)C(C(=O)NCCCN2CCC(c3ccccc3)(c3ccccc3)CC2)=C(C)N1` (stereo not drawn) [Example 41, 3-Carboxamido-2-ethyl-1,4-dihydro-6-methyl-4-(4-nitrophenyl)-3-{N-[3-(4,4-diphenylpiperidin-1-yl)propyl]}carboxamidopyridine], the pKi is 6.53 in test [1], 8.74 in test [2] and 6.22 at α2B receptor (setting [3]).
As to `CCC1=C(C(N)=O)C(c2ccc([N+](=O)[O-])cc2)C(C(=O)NCCCN2CCC(c3ccccc3)(c3ccccc3)CC2)=C(CC)N1` (stereo not drawn) [Example 42, 5-carboxamido-2,6-diethyl-1,4-dihydro-4-(4-nitrophenyl)-3-{N-[3-(4,4-diphenylpiperidin-1-yl)propyl]}carboxamidopyridine], the figures for the pKi (in test [1]; in test [2]; at α2B receptor (setting [3])) were 6.55, 8.90 and 6.64, respectively.
